The kinase profiling compilation of Christmann-Franck et al. (2016)
Blank lines part the entries; values can stand above or below the molecule they belong to.

Columns and labels:
Test in all cases: radiometric filter-binding kinase assay
STK33 (human) = STK33 (human) (UniProt Q9BYT3)
PRKCG (human) = PRKCG (human) (UniProt P05129)
PAK6 (human) = PAK6 (human) (UniProt Q9NQU5)
ULK2 (human) = ULK2 (human) (UniProt Q8IYT8)
WNK1 (human) = WNK1 (human) (UniProt Q9H4A3)
TEK (human) = TEK (human) (UniProt Q02763)
TSSK1B (human) = TSSK1B (human) (UniProt Q9BXA7)
DDR2 (human) = DDR2 (human) (UniProt Q16832)
TTBK2 (human) = TTBK2 (human) (UniProt Q6IQ55)
PDGFRA (human) = PDGFRA (human) (UniProt P16234)
EIF2AK3 (human) = EIF2AK3 (human) (UniProt Q9NZJ5)
ULK1 (human) = ULK1 (human) (UniProt O75385)
TTBK1 (human) = TTBK1 (human) (UniProt Q5TCY1)
ABL1 (human) = ABL1 (human) (UniProt P00519)
SIK2 (human) = SIK2 (human) (UniProt Q9H0K1)
TLK1 (human) = TLK1 (human) (UniProt Q9UKI8)
MAP4K5 (human) = MAP4K5 (human) (UniProt Q9Y4K4)
MAPK11 (human) = MAPK11 (human) (UniProt Q15759)
[1] = target: PRKAA1 PRKAB2 PRKAG1 (human) (UniProt O43741+Q13131+P54619)
TESK1 (human) = TESK1 (human) (UniProt Q15569)
MAPK7 (human) = MAPK7 (human) (UniProt Q13164)
[2] = test system: OXSR1 (human), O95747 [T185E]
[3] = test system: TGFBR1 (human), P36897 [T204D]
STK16 (human) = STK16 (human) (UniProt O75716)
IRAK1 (human) = IRAK1 (human) (UniProt P51617)
STK24 (human) = STK24 (human) (UniProt Q9Y6E0)
MAP4K3 (human) = MAP4K3 (human) (UniProt Q8IVH8)
SIK3 (human) = SIK3 (human) (UniProt Q9Y2K2)
CSNK1G2 (human) = CSNK1G2 (human) (UniProt P78368)
PTK6 (human) = PTK6 (human) (UniProt Q13882)
ZAP70 (human) = ZAP70 (human) (UniProt P43403)
CDK9 CCNT1 (human) = CDK9 CCNT1 (human) (UniProt P50750+O60563)

Chain of TTBK2 (human) (Q6IQ55 whole entry, looked up): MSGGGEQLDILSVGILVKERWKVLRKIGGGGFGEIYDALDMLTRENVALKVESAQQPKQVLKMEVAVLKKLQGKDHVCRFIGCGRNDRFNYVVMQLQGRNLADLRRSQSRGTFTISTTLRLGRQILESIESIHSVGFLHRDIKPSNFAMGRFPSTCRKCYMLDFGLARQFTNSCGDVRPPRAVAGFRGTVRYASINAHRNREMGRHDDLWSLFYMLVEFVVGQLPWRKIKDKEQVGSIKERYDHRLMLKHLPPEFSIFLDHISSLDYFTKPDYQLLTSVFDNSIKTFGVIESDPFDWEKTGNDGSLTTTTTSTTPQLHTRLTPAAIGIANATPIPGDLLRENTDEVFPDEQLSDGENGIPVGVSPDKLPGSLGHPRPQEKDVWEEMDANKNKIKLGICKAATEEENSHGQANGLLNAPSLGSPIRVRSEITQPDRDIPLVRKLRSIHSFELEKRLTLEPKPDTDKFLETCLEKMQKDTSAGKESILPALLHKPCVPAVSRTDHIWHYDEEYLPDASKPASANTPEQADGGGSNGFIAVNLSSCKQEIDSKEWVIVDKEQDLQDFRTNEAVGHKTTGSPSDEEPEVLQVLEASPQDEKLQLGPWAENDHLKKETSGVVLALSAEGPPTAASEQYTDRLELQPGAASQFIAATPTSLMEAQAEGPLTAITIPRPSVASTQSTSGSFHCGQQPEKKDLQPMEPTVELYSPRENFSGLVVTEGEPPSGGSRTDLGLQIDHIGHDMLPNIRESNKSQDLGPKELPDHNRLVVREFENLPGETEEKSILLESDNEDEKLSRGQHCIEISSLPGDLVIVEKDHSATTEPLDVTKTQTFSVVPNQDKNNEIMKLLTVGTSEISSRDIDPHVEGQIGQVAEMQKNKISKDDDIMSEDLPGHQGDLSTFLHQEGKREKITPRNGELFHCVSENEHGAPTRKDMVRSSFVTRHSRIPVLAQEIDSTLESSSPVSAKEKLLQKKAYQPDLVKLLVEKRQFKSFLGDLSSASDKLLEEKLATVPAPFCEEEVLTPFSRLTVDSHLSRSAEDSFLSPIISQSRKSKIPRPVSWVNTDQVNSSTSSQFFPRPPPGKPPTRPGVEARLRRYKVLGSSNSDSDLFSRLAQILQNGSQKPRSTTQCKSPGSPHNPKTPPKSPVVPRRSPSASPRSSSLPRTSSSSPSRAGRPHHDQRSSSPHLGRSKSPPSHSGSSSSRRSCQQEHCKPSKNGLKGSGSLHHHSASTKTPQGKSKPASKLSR
Chain of EIF2AK3 (human) (Q9NZJ5 whole entry, looked up): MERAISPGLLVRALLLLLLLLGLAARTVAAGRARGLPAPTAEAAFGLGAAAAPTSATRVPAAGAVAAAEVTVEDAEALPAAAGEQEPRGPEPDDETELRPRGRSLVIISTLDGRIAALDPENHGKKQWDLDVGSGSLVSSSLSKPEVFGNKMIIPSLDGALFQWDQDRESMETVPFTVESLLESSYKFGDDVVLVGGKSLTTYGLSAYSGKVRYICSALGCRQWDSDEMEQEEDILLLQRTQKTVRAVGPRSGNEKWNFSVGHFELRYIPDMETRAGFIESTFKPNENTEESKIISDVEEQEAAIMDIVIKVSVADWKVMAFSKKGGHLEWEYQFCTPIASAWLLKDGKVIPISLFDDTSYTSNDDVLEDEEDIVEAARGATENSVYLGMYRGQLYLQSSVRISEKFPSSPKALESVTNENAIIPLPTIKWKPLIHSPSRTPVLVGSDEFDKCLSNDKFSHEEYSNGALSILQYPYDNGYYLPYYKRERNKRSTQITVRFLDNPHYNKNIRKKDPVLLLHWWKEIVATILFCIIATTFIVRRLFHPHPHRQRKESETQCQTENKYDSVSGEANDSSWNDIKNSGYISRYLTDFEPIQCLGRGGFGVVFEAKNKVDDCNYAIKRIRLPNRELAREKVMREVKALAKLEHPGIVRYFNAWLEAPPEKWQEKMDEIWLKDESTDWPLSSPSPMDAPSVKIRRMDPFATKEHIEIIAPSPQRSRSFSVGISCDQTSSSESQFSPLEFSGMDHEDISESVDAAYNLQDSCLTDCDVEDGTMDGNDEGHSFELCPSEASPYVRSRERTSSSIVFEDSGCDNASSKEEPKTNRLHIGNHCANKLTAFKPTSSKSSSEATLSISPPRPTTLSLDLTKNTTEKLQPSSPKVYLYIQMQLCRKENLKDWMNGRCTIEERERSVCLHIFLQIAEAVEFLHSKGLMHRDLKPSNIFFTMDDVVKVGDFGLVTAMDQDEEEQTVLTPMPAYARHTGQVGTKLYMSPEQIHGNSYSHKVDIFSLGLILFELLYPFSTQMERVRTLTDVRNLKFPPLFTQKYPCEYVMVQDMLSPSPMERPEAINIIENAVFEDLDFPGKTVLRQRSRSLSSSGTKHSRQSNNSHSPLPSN
Chain of TTBK1 (human) (Q5TCY1 whole entry, looked up): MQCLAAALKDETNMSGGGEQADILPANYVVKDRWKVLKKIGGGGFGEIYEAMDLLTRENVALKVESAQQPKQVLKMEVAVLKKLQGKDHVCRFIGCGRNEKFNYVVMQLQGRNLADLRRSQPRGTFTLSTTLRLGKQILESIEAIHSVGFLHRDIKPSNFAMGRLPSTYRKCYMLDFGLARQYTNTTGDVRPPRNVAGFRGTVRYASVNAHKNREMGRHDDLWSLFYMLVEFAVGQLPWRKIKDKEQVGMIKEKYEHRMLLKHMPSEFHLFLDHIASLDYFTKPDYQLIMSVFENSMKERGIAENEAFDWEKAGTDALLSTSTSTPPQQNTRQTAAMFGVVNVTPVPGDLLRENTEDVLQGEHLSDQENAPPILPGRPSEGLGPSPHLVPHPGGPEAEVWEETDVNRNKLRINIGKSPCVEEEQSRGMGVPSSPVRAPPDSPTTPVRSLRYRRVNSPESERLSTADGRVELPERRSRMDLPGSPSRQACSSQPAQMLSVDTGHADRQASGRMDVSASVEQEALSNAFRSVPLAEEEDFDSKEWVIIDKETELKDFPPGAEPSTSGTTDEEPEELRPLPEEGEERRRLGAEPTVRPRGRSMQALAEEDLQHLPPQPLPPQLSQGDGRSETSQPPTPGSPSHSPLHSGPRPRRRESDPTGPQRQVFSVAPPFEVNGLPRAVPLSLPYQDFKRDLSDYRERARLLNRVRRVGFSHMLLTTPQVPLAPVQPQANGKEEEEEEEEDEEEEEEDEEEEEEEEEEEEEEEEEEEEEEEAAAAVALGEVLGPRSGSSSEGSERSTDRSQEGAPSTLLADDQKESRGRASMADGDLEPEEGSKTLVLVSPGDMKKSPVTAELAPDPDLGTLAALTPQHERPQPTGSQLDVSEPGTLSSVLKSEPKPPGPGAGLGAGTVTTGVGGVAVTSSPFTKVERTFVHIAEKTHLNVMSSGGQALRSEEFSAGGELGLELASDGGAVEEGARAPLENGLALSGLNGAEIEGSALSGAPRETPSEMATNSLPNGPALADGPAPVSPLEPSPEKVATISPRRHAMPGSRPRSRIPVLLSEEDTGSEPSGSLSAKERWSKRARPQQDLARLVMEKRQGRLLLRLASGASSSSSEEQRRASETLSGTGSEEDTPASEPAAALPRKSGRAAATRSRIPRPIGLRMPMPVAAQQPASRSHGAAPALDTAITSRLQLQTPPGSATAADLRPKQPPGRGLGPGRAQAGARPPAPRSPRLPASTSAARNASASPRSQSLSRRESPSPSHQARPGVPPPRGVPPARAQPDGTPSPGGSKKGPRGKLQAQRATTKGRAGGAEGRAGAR
Chain of SIK2 (human) (Q9H0K1 whole entry, looked up): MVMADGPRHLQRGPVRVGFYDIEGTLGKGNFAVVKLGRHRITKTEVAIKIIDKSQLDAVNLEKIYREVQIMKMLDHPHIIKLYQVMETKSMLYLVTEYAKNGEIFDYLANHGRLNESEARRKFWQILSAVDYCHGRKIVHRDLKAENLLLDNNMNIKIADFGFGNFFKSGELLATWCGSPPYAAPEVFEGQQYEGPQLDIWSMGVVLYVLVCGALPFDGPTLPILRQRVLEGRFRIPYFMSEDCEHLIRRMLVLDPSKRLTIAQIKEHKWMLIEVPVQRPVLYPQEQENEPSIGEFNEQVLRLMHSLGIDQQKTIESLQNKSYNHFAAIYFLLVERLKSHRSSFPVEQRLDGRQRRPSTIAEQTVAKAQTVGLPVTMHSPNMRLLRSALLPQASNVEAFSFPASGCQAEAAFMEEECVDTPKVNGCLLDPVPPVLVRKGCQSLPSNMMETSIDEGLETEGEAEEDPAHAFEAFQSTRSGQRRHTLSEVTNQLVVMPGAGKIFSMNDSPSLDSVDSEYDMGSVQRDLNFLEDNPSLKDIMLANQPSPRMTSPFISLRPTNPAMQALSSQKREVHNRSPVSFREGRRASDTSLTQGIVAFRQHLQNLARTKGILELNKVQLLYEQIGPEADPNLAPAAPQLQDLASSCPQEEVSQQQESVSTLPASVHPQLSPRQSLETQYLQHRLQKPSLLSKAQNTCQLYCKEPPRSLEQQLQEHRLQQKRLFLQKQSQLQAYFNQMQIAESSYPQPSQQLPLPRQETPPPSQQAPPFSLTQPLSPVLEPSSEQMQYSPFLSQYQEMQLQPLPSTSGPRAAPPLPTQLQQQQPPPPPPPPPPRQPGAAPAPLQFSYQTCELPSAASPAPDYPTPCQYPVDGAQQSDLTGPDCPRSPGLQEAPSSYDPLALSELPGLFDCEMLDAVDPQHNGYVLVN
Chain of TSSK1B (human) (Q9BXA7 whole entry, looked up): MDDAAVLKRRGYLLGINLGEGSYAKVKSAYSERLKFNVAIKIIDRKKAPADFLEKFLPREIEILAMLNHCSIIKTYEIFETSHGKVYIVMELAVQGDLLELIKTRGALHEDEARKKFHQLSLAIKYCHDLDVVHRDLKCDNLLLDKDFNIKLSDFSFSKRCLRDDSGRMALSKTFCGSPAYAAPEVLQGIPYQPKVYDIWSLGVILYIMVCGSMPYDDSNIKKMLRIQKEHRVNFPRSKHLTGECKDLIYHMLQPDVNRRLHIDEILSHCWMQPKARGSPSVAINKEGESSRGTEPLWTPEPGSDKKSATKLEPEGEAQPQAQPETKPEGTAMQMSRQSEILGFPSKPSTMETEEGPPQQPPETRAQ

- residual activity (STK33 (human); compound 0.1 µM): 104%
- residual activity (STK33 (human); compound 1.0 µM): 106%
- residual activity (STK33 (human); compound 10.0 µM): 74%
- residual activity (PRKCG (human); compound 0.1 µM): 96%
- residual activity (PRKCG (human); compound 1.0 µM): 80%
- residual activity (PRKCG (human); compound 10.0 µM): 46%
- residual activity (PAK6 (human); compound 0.1 µM): 103%
- residual activity (PAK6 (human); compound 1.0 µM): 94%
- residual activity (PAK6 (human); compound 10.0 µM): 93%
- residual activity (ULK2 (human); compound 0.1 µM): 93%
- residual activity (ULK2 (human); compound 1.0 µM): 98%
- residual activity (ULK2 (human); compound 10.0 µM): 73%
- residual activity (WNK1 (human); compound 0.1 µM): 106%
- residual activity (WNK1 (human); compound 1.0 µM): 102%
- residual activity (WNK1 (human); compound 10.0 µM): 100%
- residual activity (TEK (human); compound 1.0 µM): 116%
- residual activity (TEK (human); compound 10.0 µM): 111%
- residual activity (TSSK1B (human); compound 0.1 µM): 88%
- residual activity (TSSK1B (human); compound 10.0 µM): 42%
- residual activity (DDR2 (human); compound 0.1 µM): 108%
- residual activity (DDR2 (human); compound 1.0 µM): 97%
- residual activity (DDR2 (human); compound 10.0 µM): 104%
- residual activity (TTBK2 (human); compound 0.1 µM): 91%
- residual activity (TTBK2 (human); compound 1.0 µM): 95%
- residual activity (TTBK2 (human); compound 10.0 µM): 101%
- residual activity (PDGFRA (human); compound 0.1 µM): 120%
- residual activity (PDGFRA (human); compound 1.0 µM): 101%
- residual activity (PDGFRA (human); compound 10.0 µM): 99%
- residual activity (EIF2AK3 (human); compound 0.1 µM): 93%
- residual activity (EIF2AK3 (human); compound 1.0 µM): 105%
- residual activity (EIF2AK3 (human); compound 10.0 µM): 94%
- residual activity (ULK1 (human); compound 0.1 µM): 83%
- residual activity (ULK1 (human); compound 1.0 µM): 74%
- residual activity (ULK1 (human); compound 10.0 µM): 43%
- residual activity (TTBK1 (human); compound 0.1 µM): 104%
- residual activity (TTBK1 (human); compound 1.0 µM): 100%
- residual activity (TTBK1 (human); compound 10.0 µM): 91%
- residual activity (ABL1 (human); compound 0.1 µM): 102%
- residual activity (ABL1 (human); compound 1.0 µM): 109%
- residual activity (ABL1 (human); compound 10.0 µM): 96%
- residual activity (SIK2 (human); compound 0.1 µM): 97%
- residual activity (SIK2 (human); compound 1.0 µM): 93%
- residual activity (SIK2 (human); compound 10.0 µM): 95%
- residual activity (TLK1 (human); compound 0.1 µM): 92%
- residual activity (TLK1 (human); compound 1.0 µM): 92%
- residual activity (TLK1 (human); compound 10.0 µM): 88%
- residual activity (MAP4K5 (human); compound 0.1 µM): 107%
- residual activity (MAP4K5 (human); compound 1.0 µM): 103%
- residual activity (MAP4K5 (human); compound 10.0 µM): 84%
- residual activity (MAPK11 (human); compound 0.1 µM): 102%
- residual activity (MAPK11 (human); compound 1.0 µM): 96%
- residual activity (MAPK11 (human); compound 10.0 µM): 89%
- residual activity ([1]; compound 0.1 µM): 115%
- residual activity ([1]; compound 1.0 µM): 78%
- residual activity ([1]; compound 10.0 µM): 34%
- residual activity (TESK1 (human); compound 0.1 µM): 103%
- residual activity (TESK1 (human); compound 1.0 µM): 114%
- residual activity (TESK1 (human); compound 10.0 µM): 104%
- residual activity (MAPK7 (human); compound 0.1 µM): 96%
- residual activity (MAPK7 (human); compound 1.0 µM): 83%
- residual activity (MAPK7 (human); compound 10.0 µM): 64%
- residual activity ([2]; compound 0.1 µM): 107%
- residual activity ([2]; compound 1.0 µM): 102%
- residual activity ([2]; compound 10.0 µM): 97%
- residual activity ([3]; compound 0.1 µM): 85%
- residual activity ([3]; compound 1.0 µM): 90%
- residual activity ([3]; compound 10.0 µM): 92%
- residual activity (STK16 (human); compound 1.0 µM): 103%
- residual activity (STK16 (human); compound 10.0 µM): 83%
- residual activity (IRAK1 (human); compound 0.1 µM): 99%
- residual activity (IRAK1 (human); compound 1.0 µM): 103%
- residual activity (IRAK1 (human); compound 10.0 µM): 75%
- residual activity (STK24 (human); compound 0.1 µM): 86%
- residual activity (STK24 (human); compound 1.0 µM): 91%
- residual activity (STK24 (human); compound 10.0 µM): 73%
- residual activity (MAP4K3 (human); compound 0.1 µM): 99%
- residual activity (MAP4K3 (human); compound 10.0 µM): 66%
- residual activity (SIK3 (human); compound 0.1 µM): 89%
- residual activity (SIK3 (human); compound 1.0 µM): 94%
- residual activity (SIK3 (human); compound 10.0 µM): 89%
- residual activity (CSNK1G2 (human); compound 0.1 µM): 101%
- residual activity (CSNK1G2 (human); compound 1.0 µM): 92%
- residual activity (CSNK1G2 (human); compound 10.0 µM): 92%
- residual activity (PTK6 (human); compound 0.1 µM): 91%
- residual activity (PTK6 (human); compound 10.0 µM): 91%
- residual activity (ZAP70 (human); compound 0.1 µM): 83%
- residual activity (ZAP70 (human); compound 1.0 µM): 84%
- residual activity (ZAP70 (human); compound 10.0 µM): 84%
- residual activity (CDK9 CCNT1 (human); compound 0.1 µM): 103%
- residual activity (CDK9 CCNT1 (human); compound 1.0 µM): 115%
- residual activity (CDK9 CCNT1 (human); compound 10.0 µM): 103%
Structure (SMILES): CCn1c(-c2nonc2N)nc2cncc(CNC3CCNCC3)c21

- residual activity (STK33 (human); compound 1.0 µM): 47%
- residual activity (STK33 (human); compound 10.0 µM): 30%
- residual activity (PAK6 (human); compound 1.0 µM): 94%
- residual activity (PAK6 (human); compound 10.0 µM): 94%
- residual activity (ULK2 (human); compound 1.0 µM): 88%
- residual activity (ULK2 (human); compound 10.0 µM): 70%
- residual activity (WNK1 (human); compound 1.0 µM): 97%
- residual activity (WNK1 (human); compound 10.0 µM): 106%
- residual activity (TEK (human); compound 1.0 µM): 85%
- residual activity (TEK (human); compound 10.0 µM): 91%
- residual activity (TSSK1B (human); compound 1.0 µM): 31%
- residual activity (TSSK1B (human); compound 10.0 µM): 7%
- residual activity (DDR2 (human); compound 1.0 µM): 105%
- residual activity (DDR2 (human); compound 10.0 µM): 100%
- residual activity (TTBK2 (human); compound 1.0 µM): 91%
- residual activity (TTBK2 (human); compound 10.0 µM): 97%
- residual activity (PDGFRA (human); compound 1.0 µM): 81%
- residual activity (PDGFRA (human); compound 10.0 µM): 76%
- residual activity (EIF2AK3 (human); compound 1.0 µM): 87%
- residual activity (EIF2AK3 (human); compound 10.0 µM): 82%
- residual activity (ULK1 (human); compound 1.0 µM): 98%
- residual activity (ULK1 (human); compound 10.0 µM): 56%
- residual activity (TTBK1 (human); compound 1.0 µM): 96%
- residual activity (TTBK1 (human); compound 10.0 µM): 93%
- residual activity (ABL1 (human); compound 1.0 µM): 106%
- residual activity (ABL1 (human); compound 10.0 µM): 97%
- residual activity (SIK2 (human); compound 1.0 µM): 84%
- residual activity (SIK2 (human); compound 10.0 µM): 34%
- residual activity (TLK1 (human); compound 1.0 µM): 106%
- residual activity (TLK1 (human); compound 10.0 µM): 96%
- residual activity (MAP4K5 (human); compound 1.0 µM): 107%
- residual activity (MAP4K5 (human); compound 10.0 µM): 91%
- residual activity (MAPK11 (human); compound 1.0 µM): 98%
- residual activity (MAPK11 (human); compound 10.0 µM): 101%
- residual activity ([1]; compound 1.0 µM): 82%
- residual activity ([1]; compound 10.0 µM): 44%
- residual activity (TESK1 (human); compound 1.0 µM): 102%
- residual activity (TESK1 (human); compound 10.0 µM): 118%
- residual activity (MAPK7 (human); compound 1.0 µM): 66%
- residual activity (MAPK7 (human); compound 10.0 µM): 42%
- residual activity ([2]; compound 1.0 µM): 95%
- residual activity ([2]; compound 10.0 µM): 51%
- residual activity ([3]; compound 1.0 µM): 99%
- residual activity ([3]; compound 10.0 µM): 103%
- residual activity (STK16 (human); compound 1.0 µM): 115%
- residual activity (STK16 (human); compound 10.0 µM): 101%
- residual activity (IRAK1 (human); compound 1.0 µM): 98%
- residual activity (IRAK1 (human); compound 10.0 µM): 94%
- residual activity (STK24 (human); compound 1.0 µM): 96%
- residual activity (STK24 (human); compound 10.0 µM): 85%
- residual activity (MAP4K3 (human); compound 1.0 µM): 76%
- residual activity (MAP4K3 (human); compound 10.0 µM): 36%
- residual activity (SIK3 (human); compound 1.0 µM): 95%
- residual activity (SIK3 (human); compound 10.0 µM): 93%
- residual activity (CSNK1G2 (human); compound 1.0 µM): 90%
- residual activity (CSNK1G2 (human); compound 10.0 µM): 89%
- residual activity (PTK6 (human); compound 1.0 µM): 53%
- residual activity (PTK6 (human); compound 10.0 µM): 22%
- residual activity (ZAP70 (human); compound 1.0 µM): 88%
- residual activity (ZAP70 (human); compound 10.0 µM): 86%
- residual activity (CDK9 CCNT1 (human); compound 1.0 µM): 87%
- residual activity (CDK9 CCNT1 (human); compound 10.0 µM): 90%
Structure (SMILES): COc1cc(C(=O)N2CCOCC2)c(F)cc1Nc1ncc(C(F)(F)F)c(NC2CC2)n1
